PMC2924751 (Chemical research in toxicology, 2010)

Assays:
P450 3A4 = P450 3A4 (Homo sapiens, UniProt P08684); assay: in vitro
P450 3A5 = P450 3A5 (Homo sapiens, UniProt P20815); assay: in vitro
P450 3A5, sequence (P20815 whole entry): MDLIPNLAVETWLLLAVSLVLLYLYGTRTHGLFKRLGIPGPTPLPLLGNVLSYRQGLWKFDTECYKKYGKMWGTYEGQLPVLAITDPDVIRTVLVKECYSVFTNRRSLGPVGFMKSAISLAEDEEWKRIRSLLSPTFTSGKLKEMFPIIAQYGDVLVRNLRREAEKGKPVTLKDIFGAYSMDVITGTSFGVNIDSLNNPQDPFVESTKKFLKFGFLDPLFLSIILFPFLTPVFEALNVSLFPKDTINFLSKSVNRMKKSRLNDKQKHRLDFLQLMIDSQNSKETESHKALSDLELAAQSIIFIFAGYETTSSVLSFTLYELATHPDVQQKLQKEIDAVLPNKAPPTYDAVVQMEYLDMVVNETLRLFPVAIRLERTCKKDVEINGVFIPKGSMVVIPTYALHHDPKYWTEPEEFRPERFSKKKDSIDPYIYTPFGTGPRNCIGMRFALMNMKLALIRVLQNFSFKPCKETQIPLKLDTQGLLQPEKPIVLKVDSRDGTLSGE
P450 3A5, sequence (P16435 2-677 partner): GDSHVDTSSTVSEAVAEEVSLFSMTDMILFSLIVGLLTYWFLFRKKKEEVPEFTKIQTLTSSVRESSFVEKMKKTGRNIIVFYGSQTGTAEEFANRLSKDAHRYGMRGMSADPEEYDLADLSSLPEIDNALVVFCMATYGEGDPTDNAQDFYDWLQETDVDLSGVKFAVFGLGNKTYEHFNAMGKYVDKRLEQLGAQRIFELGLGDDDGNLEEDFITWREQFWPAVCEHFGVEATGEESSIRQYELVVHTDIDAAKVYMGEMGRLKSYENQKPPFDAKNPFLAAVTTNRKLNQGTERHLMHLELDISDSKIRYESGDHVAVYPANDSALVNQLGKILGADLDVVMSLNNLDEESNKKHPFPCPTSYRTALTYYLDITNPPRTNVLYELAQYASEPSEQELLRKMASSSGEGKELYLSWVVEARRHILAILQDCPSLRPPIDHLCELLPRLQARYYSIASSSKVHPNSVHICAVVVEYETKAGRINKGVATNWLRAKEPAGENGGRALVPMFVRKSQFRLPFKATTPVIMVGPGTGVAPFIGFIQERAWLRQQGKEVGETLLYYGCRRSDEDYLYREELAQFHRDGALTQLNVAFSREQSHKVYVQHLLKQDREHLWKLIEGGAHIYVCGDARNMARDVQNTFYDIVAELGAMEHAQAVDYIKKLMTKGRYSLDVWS
P450 3A5, sequence (P00167 2-134 partner): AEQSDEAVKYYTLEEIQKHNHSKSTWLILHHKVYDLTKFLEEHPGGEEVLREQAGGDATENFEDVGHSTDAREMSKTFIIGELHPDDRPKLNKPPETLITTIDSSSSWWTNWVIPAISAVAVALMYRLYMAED

P450 3A4, sequence (P08684 2-503): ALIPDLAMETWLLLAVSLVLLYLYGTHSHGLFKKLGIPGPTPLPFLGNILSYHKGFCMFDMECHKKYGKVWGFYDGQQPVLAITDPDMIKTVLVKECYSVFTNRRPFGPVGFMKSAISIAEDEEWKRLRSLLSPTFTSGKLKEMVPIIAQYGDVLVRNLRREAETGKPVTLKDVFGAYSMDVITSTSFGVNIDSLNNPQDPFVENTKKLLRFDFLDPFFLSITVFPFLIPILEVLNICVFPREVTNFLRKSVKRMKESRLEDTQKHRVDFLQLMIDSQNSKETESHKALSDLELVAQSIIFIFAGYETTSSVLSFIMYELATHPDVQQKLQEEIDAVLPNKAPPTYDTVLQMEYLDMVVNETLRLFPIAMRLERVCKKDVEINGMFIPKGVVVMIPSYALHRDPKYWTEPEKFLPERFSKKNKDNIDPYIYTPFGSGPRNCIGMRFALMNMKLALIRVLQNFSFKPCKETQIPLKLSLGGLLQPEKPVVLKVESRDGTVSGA
P450 3A4, sequence (P16435 2-677 partner): as the sequence (P16435 2-677 partner) above
P450 3A4, sequence (P00167 2-134 partner): as the sequence (P00167 2-134 partner) above

- KI (inactivation) (P450 3A4): 3.5 µM
- KI (inactivation) (P450 3A5): 16 µM
SMILES: CCC(=O)O[C@]1(C(=O)SCF)[C@H](C)C[C@H]2[C@@H]3C[C@H](F)C4=CC(=O)C=C[C@]4(C)[C@@]3(F)[C@@H](O)C[C@@]21C [FLT, fluticasone propionate]
